Source: PubChem BioAssay (NCI)
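Following 48 hours of exposure in 96-well plates, responses at five concentrations were used to interpolate endpoints linearly. Here, GI50 denotes the concentration required for 50% inhibition of growth. TGI: concentration producing complete growth inhibition.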

How the values were obtained:
Assay in all cases: NCI tumour cell line growth inhibition, 48 h
[1] = system: KM20L2 colon
[2] = system: HOP-18 NSCLC
[3] = system: M19-MEL melanoma
[4] = system: SNB-78 CNS
[5] = system: DLD-1 colon
[6] = system: LXFL 529 NSCLC
[7] = system: RXF-631 renal
[8] = system: DMS 273 small cell lung
[9] = system: MDA-N

COc1cccc(NC(=O)CC(=O)N2N=C(N3c4ccccc4Sc4ccccc43)CC2c2ccccc2)c1 (stereo not drawn)
TGI [1]: > 100 µM | TGI [2]: 62.2 µM | TGI [3]: > 100 µM | TGI [4]: > 100 µM | TGI [5]: > 100 µM | TGI [6]: > 100 µM

CCCN(CCC)C(=O)C(=O)c1c(N)[nH]n(-c2ccccc2)c1=O
TGI [1]: > 100 µM | TGI [2]: > 100 µM | TGI [7]: > 100 µM | TGI [3]: > 100 µM | TGI [4]: > 100 µM | TGI [8]: > 100 µM | TGI [5]: > 100 µM | TGI [6]: > 100 µM

CCOC(=O)/C(O)=C(/C(=O)OC)c1ccc(Cl)cc1
TGI [1]: > 100 µM | TGI [7]: > 100 µM | TGI [3]: > 100 µM | TGI [4]: > 100 µM | TGI [8]: > 100 µM | TGI [5]: > 100 µM | TGI [6]: > 100 µM

NCCN.O=C([O-])CN1CCOCC1.[OH-].[Pt+4]
GI50 [9]: > 100 µM | TGI [9]: > 100 µM

C[C@]12CCC(=O)CC1CCCC2=O (stereo partly drawn)
TGI [7]: > 100 µM | TGI [3]: > 100 µM | TGI [4]: > 100 µM | TGI [8]: > 100 µM | TGI [5]: > 100 µM | TGI [6]: > 100 µM

O=C(O)c1nc(-c2ccc(Cl)c(Cl)c2)nc2ccc(Cl)cc12
TGI [1]: > 100 µM | TGI [3]: > 100 µM | TGI [4]: 77.6 µM | TGI [8]: > 100 µM | TGI [5]: > 100 µM | TGI [6]: > 100 µM

O=C1C(c2cnc3ccccc3n2)=C(O)c2ccccc21
TGI [1]: > 100 µM | TGI [7]: > 100 µM | TGI [3]: > 100 µM | TGI [4]: > 100 µM | TGI [8]: > 100 µM | TGI [9]: > 100 µM | TGI [5]: > 100 µM | TGI [6]: > 100 µM

O=[N+]([O-])c1cc(Cl)cnc1Br
TGI [9]: 12.4 µM

C[CH2][Sn]([CH2]C)([O]C(=O)c1ccccc1F)[O][Sn]([CH2]C)([CH2]C)[O]C(=O)c1ccccc1F
GI50 [1]: > 51.2 µM | TGI [1]: > 77.9 µM | GI50 [2]: 22.7 µM | TGI [2]: 51.6 µM | GI50 [3]: 28.6 µM | TGI [3]: > 100 µM | GI50 [4]: 18.7 µM | TGI [4]: 46.7 µM | GI50 [8]: > 62.6 µM | TGI [8]: > 100 µM | GI50 [5]: 18.4 µM | TGI [5]: 54.7 µM | GI50 [6]: 9.79 µM | TGI [6]: 22.1 µM

COc1ccc(C2=C(c3ccc(OC)c(OC)c3)C(=O)N3CCCC3C2)cc1 (stereo not drawn)
GI50 [9]: 44.6 µM | TGI [9]: > 100 µM

O=[N+]([O-])c1ccc(N2CCC(CCCC3CCN(c4ccc([N+](=O)[O-])cc4[N+](=O)[O-])CC3)CC2)c([N+](=O)[O-])c1
TGI [9]: 30.1 µM

O=S(=O)(/C=C/CS(=O)(=O)c1ccccc1)c1ccccc1
TGI [1]: 74.2 µM | TGI [2]: > 100 µM | TGI [7]: 52.8 µM | TGI [3]: > 100 µM | TGI [4]: 89.9 µM | TGI [8]: > 100 µM | TGI [5]: > 100 µM | TGI [6]: > 100 µM

O=C1/C(=N\O)S(=O)(=O)c2ccccc21
TGI [1]: > 100 µM | TGI [2]: > 100 µM | TGI [7]: > 100 µM | TGI [3]: > 100 µM | TGI [4]: > 100 µM | TGI [8]: > 100 µM | TGI [5]: > 100 µM | TGI [6]: > 100 µM

O=c1c(O)c(-c2ccc(O)c(O)c2)oc2cc(O)cc(O)c12
TGI [1]: > 100 µM | TGI [2]: > 100 µM | TGI [7]: > 100 µM | TGI [3]: > 100 µM | TGI [4]: > 100 µM | TGI [8]: > 100 µM | TGI [5]: > 100 µM | TGI [6]: > 100 µM

CC(C)(c1ccccc1)c1ccc(Oc2ccc(C#N)c(C#N)c2)cc1
GI50 [1]: > 100 µM | TGI [1]: > 100 µM | GI50 [7]: > 100 µM | TGI [7]: > 100 µM | TGI [3]: > 100 µM | GI50 [5]: > 100 µM | TGI [5]: > 100 µM | TGI [6]: > 100 µM

CC1(C)CC2CC(CC(C)(C)C2=O)C1=O
TGI [1]: > 100 µM | TGI [2]: > 100 µM | TGI [7]: > 100 µM | TGI [3]: > 100 µM | TGI [4]: > 100 µM | TGI [8]: > 100 µM | TGI [5]: > 100 µM | TGI [6]: > 100 µM

COc1cccc(-c2cc3c4c(nc5ccccc53)C(=O)c3cccnc3-c4n2)c1
GI50 [9]: 1.74 µM | TGI [9]: 4.01 µM

CNC(=O)OCc1c2ccncc2c(C)c2c1[nH]c1ccc(OC)cc12
TGI [1]: 0.799 µM | TGI [2]: 0.738 µM | TGI [7]: > 100 µM | TGI [3]: 1.68 µM | TGI [4]: 0.681 µM | TGI [8]: > 100 µM | TGI [6]: 0.37 µM

CN1CCc2[nH]nc(-c3n[nH]c4c3CN(C)CC4)c2C1
TGI [9]: > 100 µM

OCCn1cnc2c(SCc3ccccc3)ncnc21
TGI [9]: > 100 µM

CC(=O)[CH-]C(=O)c1ccccc1.CC(=O)[CH-]C(=O)c1ccccc1.CC(=O)[CH-]C(=O)c1ccccc1.[In+3]
GI50 [1]: 39.4 µM | TGI [1]: > 100 µM | GI50 [2]: 43.5 µM | TGI [2]: 77.1 µM | GI50 [3]: 28.8 µM | TGI [3]: > 100 µM | GI50 [5]: 24.4 µM | TGI [5]: > 100 µM | GI50 [6]: 25.5 µM | TGI [6]: > 100 µM

O=C(NC(=Nc1ccccc1)SCCSC(=Nc1ccccc1)NC(=O)c1cccs1)c1cccs1
TGI [1]: > 100 µM | TGI [3]: > 100 µM | TGI [8]: > 100 µM | TGI [5]: > 100 µM | TGI [6]: > 100 µM

O=C(N/C(=C\c1ccc(/C=C(\NC(=O)c2ccccc2)c2nc3ccccc3[nH]2)cc1)c1nc2ccccc2[nH]1)c1ccccc1
TGI [1]: > 100 µM | TGI [2]: > 100 µM | TGI [3]: > 100 µM | TGI [4]: > 100 µM | TGI [8]: > 100 µM | TGI [5]: > 100 µM | TGI [6]: > 100 µM

COc1ccc(COC2CC(OC)OC(C)C2OC(=O)c2ccccc2)cc1 (stereo not drawn)
TGI [1]: 32.9 µM | TGI [2]: > 100 µM | TGI [7]: > 100 µM | TGI [3]: > 91.1 µM | TGI [4]: > 100 µM | TGI [8]: > 100 µM | TGI [5]: > 91.8 µM | TGI [6]: > 81.8 µM

Oc1c(Cl)c(Cl)c(O)c2c1CCCC2
TGI [9]: 31.1 µM
